From the METLIN SMRT retention time set (Domingo-Almenara et al. 2019) come the findings set out here.

The nature of the series: gradient 5% acetonitrile 3 min, to 50% in 2 min, to 85% in 15 min, held 3 min, 100 µL/min. The following applies: column: Zorbax Extend-C18 2.1 x 50 mm; eluents: water / acetonitrile, 0.1% formic acid. The method in brief: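 A Zorbax Extend-C18 column (2.1 × 50 mm, 1.8 μm) run at 100 μL/min with water and acetonitrile, both containing 0.1% formic acid, separated mixtures of ~100 pure standards. The HPLC was coupled to a quadrupole time-of-flight mass spectrometer operated in positive and negative ionization mode, with dead and dwell volumes of 40 μL and 900 μL. Each retention time was taken from a computationally picked adduct peak that was then manually inspected.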
In turn, `c1cc(-c2noc(C3CCCC3)n2)cc(N2CCOCC2)n1` showed an RP-LC retention time of 872 s.

In turn, `N#Cc1ccc(-c2csc(NC(=O)c3sc4ccccc4c3Cl)n2)cc1` registered an RP-LC retention time of 1240 s.

With `O=C(O)c1cn(-c2ccccc2F)nn1`, the RP-LC retention time is 650 s.

Compound `CCC(C)n1c(=O)c2ccccc2n(Cc2nc(-c3ccc(C(F)(F)F)cc3)no2)c1=O` (stereo not given) gave an RP-LC retention time of 1290 s.

`Cc1cccc(-c2nc(-c3ccc4c(c3)oc(=O)n4C(C)C)no2)c1` gave an RP-LC retention time of 1250 s.

In the case of `O=C(c1ccccc1OCC1CCCNC1)N1CCCC1` (stereo not given), the RP-LC retention time is 596 s.

Regarding `Cn1ncc2c3ccccc3n(CCCC(=O)NCCN3CCCCCC3)c2c1=O`, the RP-LC retention time worked out at 645 s.

As for `COc1cccc(OC)c1OCC(O)CN1CCN(c2ccccc2)CC1` (stereo not given), the RP-LC retention time was found to be 668 s.

Compound `O=C(NCCCN1CCCC1)c1ccc(-c2ccc(N3CCSCC3)nc2)cc1` came in with an RP-LC retention time of 574 s.

As to `CCn1cc(-c2ccc(C)cc2)cc1C(=O)NC1CC1`, the RP-LC retention time came to 991 s.

In turn, `COCCNC(=O)CN1c2ccccc2NC2=C(C(=O)CC(C)(C)C2)C1c1ccc(F)cc1` (stereo not given) had an RP-LC retention time of 752 s.

The compound `O=C(c1ccco1)N1CCCCC1c1nc(C2CC2)n[nH]1` (stereo not given) yielded an RP-LC retention time of 625 s.

`CCOC(=O)CC1(NC(=O)N2CCN(c3nc4ccccc4n3C)CC2)CCCCC1`: the RP-LC retention time was 593 s.

On to `NS(=O)(=O)c1ccc(CCNC(=O)C2CN(c3nc4c(F)cccc4s3)C2)cc1`, for which the RP-LC retention time came to 660 s.

As to `CCOC(=O)c1[nH]c(C)c(CN(Cc2ccco2)C(=O)Nc2ccc(F)cc2)c1C`, the RP-LC retention time worked out at 936 s.

In the case of `O=C(c1csc(S(=O)(=O)N2CCC(C(=O)N3CCCC3)CC2)c1)N1CCCCCC1`, the RP-LC retention time turned out to be 769 s.

`CC(NC(=O)c1ccccc1)c1nc(-c2ccc3nnn(C)c3c2)no1` (stereo not given) had an RP-LC retention time of 641 s.

The compound `Cc1ccsc1C(=O)NCCn1c(C)cnc1C1CCC1` showed an RP-LC retention time of 596 s.

Regarding `CCn1c(=O)c(C(=O)NC2CCN(Cc3ccccc3)CC2)nc2cccnc21`, the RP-LC retention time was 606 s.

In the case of `COc1cccc(CNC2CCN(c3ccc(C(=O)NC4CC4)cn3)C2)c1O` (stereo not given), the RP-LC retention time is 556 s.

On to `CCN1CCN(C(=O)C2CCCN(c3ncnc4c3nc3n4CCCCC3)C2)CC1` (stereo not given), for which the RP-LC retention time turned out to be 575 s.

For the compound `Cn1cnc2cc(-c3noc(CNC(=O)c4ccco4)n3)ccc21`, the RP-LC retention time worked out at 585 s.

`CC1CCN(CCNc2ccc(-c3nc(-c4ccc(F)cc4)no3)cn2)CC1` yielded an RP-LC retention time of 777 s.

Take `COC(=O)C1CCN(C(=O)c2csc(Nc3ncccn3)n2)CC1`: the RP-LC retention time is 644 s.

Compound `O=C(C1CCN(S(=O)(=O)c2ccc(-c3noc(C4CC4)n3)cc2)CC1)N1CCOCC1` displayed an RP-LC retention time of 805 s.

With `COc1ccc2nc(N3CC(C(=O)N4CCc5cc(OC)c(OC)cc5C4)C3)sc2c1`, the RP-LC retention time was 661 s.

In the case of `CC(C)CN1CCN(Cc2nc(Cn3ccn4nc(-c5ccccc5)cc4c3=O)no2)CC1`, the RP-LC retention time came to 665 s.

On to `CN1CCN(C(=O)C2CCN(c3nc4ccc(-c5ccccc5)nc4s3)CC2)CC1`, for which the RP-LC retention time stood at 672 s.

On to `CCOCCCNC(=O)C1CCN(c2nccnc2Oc2ccccc2C)CC1`, for which the RP-LC retention time is 841 s.

As to `CCNc1cc(N2CCC(CCC(=O)NCc3cccs3)CC2)ncn1`, the RP-LC retention time stood at 627 s.

With `CC(C)NCC(O)c1ccc(N)c(C#N)c1` (stereo not given), the RP-LC retention time is 563 s.

As to `O=C(NCC(O)c1cccc2ccccc12)Nc1c(F)cccc1F` (stereo not given), the RP-LC retention time was determined as 745 s.

In turn, `CCOc1ccc(-c2noc(Cn3nc(-c4ccccc4)ccc3=O)n2)cc1` gave an RP-LC retention time of 1070 s.

With `CN1C(=O)c2ccccc2Oc2ccc(C(=O)NCc3cccs3)cc21`, the RP-LC retention time turned out to be 847 s.

Take `O=C(CCc1ccccc1)N1CCC(n2nnc3cc(F)ccc3c2=O)CC1`: the RP-LC retention time is 879 s.

`CC1=C(c2ccc(C)cc2)S(=O)(=O)N=C1N1CCCN(C(=O)NCc2ccco2)CC1` registered an RP-LC retention time of 803 s.

Regarding `COc1ccc2c(c1)-c1nc(NC(=O)c3ccc(C)cc3)sc1CC2`, the RP-LC retention time was 1170 s.

Compound `Cc1cc(C)cc(C(=O)N2CCCC(C(=O)NCCN3CCCC3)C2)c1` (stereo not given) showed an RP-LC retention time of 606 s.

`COc1ccccc1NC(=O)N1CCC2(CC1)N=C(c1ccc(Cl)cc1)C(=O)N2` displayed an RP-LC retention time of 884 s.

As for `O=C(NC1CCCC1)c1cccnc1N1CCSCC1`, the RP-LC retention time came out at 735 s.

Take `Cc1ccc(C(=O)Nc2ccc3c(N4CCCCC4)ncnc3c2)s1`: the RP-LC retention time is 695 s.

In turn, `COc1ccc(Cl)cc1S(=O)(=O)N1CCC(C(=O)NCCc2ccccc2)CC1` had an RP-LC retention time of 909 s.

The compound `Cn1cc2c3c(cccc31)CN(C(=O)c1ccc(F)cc1Cl)CC2` displayed an RP-LC retention time of 958 s.

With `CN(CC1CCOC1)C(=O)c1cc(F)ccc1Cl` (stereo not given), the RP-LC retention time worked out at 704 s.

Compound `O=C(CSCc1ccccc1)N1CCC(c2nnc(C(F)(F)F)o2)CC1` had an RP-LC retention time of 857 s.

Consider `Cn1cc(-c2nc(C(=O)Nc3ccc(F)cc3F)cs2)c2cccnc21`, for which the RP-LC retention time was 1070 s.

With `Cc1sc(NC(=O)c2ccc(S(=O)(=O)N(C)C)cc2)nc1-c1ccc2c(c1)NC(=O)CO2`, the RP-LC retention time is 842 s.

As for `COc1ccc(NC(=O)NCC(c2cccnc2)c2c[nH]c3ccccc23)c(OC)c1` (stereo not given), the RP-LC retention time came to 650 s.

`Cc1ccccc1N1C(=O)CN(S(C)(=O)=O)CC1(C)C(=O)NCc1ccc(F)cc1` (stereo not given) gave an RP-LC retention time of 818 s.

As to `Cc1ccc(C2NC(=O)c3ccccc3N2)s1` (stereo not given), the RP-LC retention time turned out to be 705 s.

In the case of `CN(C)c1ccc(N2C=C(C(=O)N3CCCCC3)S(=O)(=O)c3ccccc32)cc1`, the RP-LC retention time was 898 s.

Turning to `CCn1c(C(=O)NCCc2ccc(S(N)(=O)=O)cc2)cc2sc(Cl)cc21`, the RP-LC retention time amounted to 860 s.

Turning to `O=C(NCc1ccc(F)c(Cl)c1)C1CCCN(c2cnc3nccnc3c2)C1` (stereo not given), the RP-LC retention time turned out to be 757 s.

For `CCc1nc2c(c(=O)n1CC(=O)Nc1cc(C)ccc1OC)CN(Cc1ccccc1)CC2`, the RP-LC retention time is 681 s.

`O=C(NCC1CCCO1)c1cccn1Cc1noc(-c2ccccc2)n1` (stereo not given) showed an RP-LC retention time of 855 s.

`COCC(=O)N(CC(=O)N1CCc2sccc2C1COc1ccc(Cl)cc1)CC1CCCO1` (stereo not given) gave an RP-LC retention time of 871 s.

Regarding `O=C(NCc1ccco1)c1csc(N2CCN(c3ccc(Cl)cc3)CC2)n1`, the RP-LC retention time worked out at 1090 s.

Regarding `Cc1ccc(CN2C(=O)COC[C@H]2C(=O)NCc2ccco2)cc1`, the RP-LC retention time was 737 s.

`O=C(c1ccc2c(c1)OCO2)N1CCN(c2nc(CN3CCOCC3)cs2)CC1` gave an RP-LC retention time of 596 s.

`Cc1ccc(N2CCC(NC(=O)c3ccc(N(C)C)cc3)C2=O)cc1` (stereo not given) gave an RP-LC retention time of 810 s.
